According to the NIST ThermoML archive (doi:10.1021/je500696p):
Numbers after ± are expanded uncertainties.

Legend:
[1] = xn = mol fraction of the nth substance listed; conditions: 100 kPa, Liquid, Vibrating tube method
[2] = excess molar enthalpy (molar enthalpy of mixing); xn = mol fraction of the nth substance listed; conditions: 100 kPa, Liquid, Calvet calorimetry

CCCC[N+](C)(C)C.O=S(=O)([N-]S(=O)(=O)C(F)(F)F)C(F)(F)F [butyltrimethylammonium bis(trifluoromethylsulfonyl)imide] + CN(C)C=O
mass density ([1]; 293.15 K, x2 = 0): 1397.1 ± 4.2 kg/m3 | mass density ([1]; 293.15 K, x2 = 0.1268): 1379.7 ± 4.2 kg/m3 | mass density ([1]; 293.15 K, x2 = 0.2011): 1367.7 ± 4.1 kg/m3 | mass density ([1]; 293.15 K, x2 = 0.3028): 1348.7 ± 4.1 kg/m3 | mass density ([1]; 293.15 K, x2 = 0.3824): 1331.3 ± 4 kg/m3 | mass density ([1]; 293.15 K, x2 = 0.5078): 1297.4 ± 3.9 kg/m3 | mass density ([1]; 293.15 K, x2 = 0.6249): 1255.8 ± 3.8 kg/m3 | mass density ([1]; 293.15 K, x2 = 0.7548): 1191.6 ± 3.6 kg/m3 | mass density ([1]; 293.15 K, x2 = 0.8764): 1101.3 ± 3.3 kg/m3 | mass density ([1]; 293.15 K, x2 = 0.9157): 1061.9 ± 3.2 kg/m3 | mass density ([1]; 295.15 K, x2 = 0): 1395.3 ± 4.2 kg/m3 | mass density ([1]; 295.15 K, x2 = 0.1268): 1377.9 ± 4.2 kg/m3 | mass density ([1]; 295.15 K, x2 = 0.2011): 1365.9 ± 4.1 kg/m3 | mass density ([1]; 295.15 K, x2 = 0.3028): 1346.9 ± 4.1 kg/m3 | mass density ([1]; 295.15 K, x2 = 0.3824): 1329.5 ± 4 kg/m3 | mass density ([1]; 295.15 K, x2 = 0.5078): 1295.6 ± 3.9 kg/m3 | mass density ([1]; 295.15 K, x2 = 0.6249): 1253.9 ± 3.8 kg/m3 | mass density ([1]; 295.15 K, x2 = 0.7548): 1189.7 ± 3.6 kg/m3 | mass density ([1]; 295.15 K, x2 = 0.8764): 1099.4 ± 3.3 kg/m3 | mass density ([1]; 295.15 K, x2 = 0.9157): 1060 ± 3.2 kg/m3 | mass density ([1]; 298.15 K, x2 = 0): 1392.7 ± 4.2 kg/m3 | mass density ([1]; 298.15 K, x2 = 0.1268): 1375.3 ± 4.2 kg/m3 | mass density ([1]; 298.15 K, x2 = 0.2011): 1363.2 ± 4.1 kg/m3 | mass density ([1]; 298.15 K, x2 = 0.3028): 1344.2 ± 4 kg/m3 | mass density ([1]; 298.15 K, x2 = 0.3824): 1326.8 ± 4 kg/m3 | mass density ([1]; 298.15 K, x2 = 0.5078): 1292.8 ± 3.9 kg/m3 | mass density ([1]; 298.15 K, x2 = 0.6249): 1251.2 ± 3.8 kg/m3 | mass density ([1]; 298.15 K, x2 = 0.7548): 1186.8 ± 3.6 kg/m3 | mass density ([1]; 298.15 K, x2 = 0.8764): 1096.5 ± 3.3 kg/m3 | mass density ([1]; 298.15 K, x2 = 0.9157): 1057.1 ± 3.2 kg/m3 | mass density ([1]; 303.15 K, x2 = 0): 1388.3 ± 4.2 kg/m3 | mass density ([1]; 303.15 K, x2 = 0.1268): 1370.8 ± 4.1 kg/m3 | mass density ([1]; 303.15 K, x2 = 0.2011): 1358.8 ± 4.1 kg/m3 | mass density ([1]; 303.15 K, x2 = 0.3028): 1339.7 ± 4 kg/m3 | mass density ([1]; 303.15 K, x2 = 0.3824): 1322.2 ± 4 kg/m3 | mass density ([1]; 303.15 K, x2 = 0.5078): 1288.2 ± 3.9 kg/m3 | mass density ([1]; 303.15 K, x2 = 0.6249): 1246.5 ± 3.7 kg/m3 | mass density ([1]; 303.15 K, x2 = 0.7548): 1182.1 ± 3.6 kg/m3 | mass density ([1]; 303.15 K, x2 = 0.8764): 1091.8 ± 3.3 kg/m3 | mass density ([1]; 303.15 K, x2 = 0.9157): 1052.4 ± 3.2 kg/m3 | mass density ([1]; 308.15 K, x2 = 0): 1384 ± 4.2 kg/m3 | mass density ([1]; 308.15 K, x2 = 0.1268): 1366.4 ± 4.1 kg/m3 | mass density ([1]; 308.15 K, x2 = 0.2011): 1354.3 ± 4.1 kg/m3 | mass density ([1]; 308.15 K, x2 = 0.3028): 1335.2 ± 4 kg/m3 | mass density ([1]; 308.15 K, x2 = 0.3824): 1317.7 ± 4 kg/m3 | mass density ([1]; 308.15 K, x2 = 0.5078): 1283.6 ± 3.9 kg/m3 | mass density ([1]; 308.15 K, x2 = 0.6249): 1241.8 ± 3.7 kg/m3 | mass density ([1]; 308.15 K, x2 = 0.7548): 1177.4 ± 3.5 kg/m3 | mass density ([1]; 308.15 K, x2 = 0.8764): 1087 ± 3.3 kg/m3 | mass density ([1]; 308.15 K, x2 = 0.9157): 1047.6 ± 3.1 kg/m3 | mass density ([1]; 313.15 K, x2 = 0): 1379.6 ± 4.2 kg/m3 | mass density ([1]; 313.15 K, x2 = 0.1268): 1362 ± 4.1 kg/m3 | mass density ([1]; 313.15 K, x2 = 0.2011): 1349.9 ± 4.1 kg/m3 | mass density ([1]; 313.15 K, x2 = 0.3028): 1330.7 ± 4 kg/m3 | mass density ([1]; 313.15 K, x2 = 0.3824): 1313.1 ± 4 kg/m3 | mass density ([1]; 313.15 K, x2 = 0.5078): 1279 ± 3.8 kg/m3 | mass density ([1]; 313.15 K, x2 = 0.6249): 1237.2 ± 3.7 kg/m3 | mass density ([1]; 313.15 K, x2 = 0.7548): 1172.7 ± 3.5 kg/m3 | mass density ([1]; 313.15 K, x2 = 0.8764): 1082.3 ± 3.3 kg/m3 | mass density ([1]; 313.15 K, x2 = 0.9157): 1042.8 ± 3.1 kg/m3 | mass density ([1]; 318.15 K, x2 = 0): 1375.2 ± 4.2 kg/m3 | mass density ([1]; 318.15 K, x2 = 0.1268): 1357.6 ± 4.1 kg/m3 | mass density ([1]; 318.15 K, x2 = 0.2011): 1345.4 ± 4.1 kg/m3 | mass density ([1]; 318.15 K, x2 = 0.3028): 1326.2 ± 4 kg/m3 | mass density ([1]; 318.15 K, x2 = 0.3824): 1308.6 ± 3.9 kg/m3 | mass density ([1]; 318.15 K, x2 = 0.5078): 1274.5 ± 3.8 kg/m3 | mass density ([1]; 318.15 K, x2 = 0.6249): 1232.6 ± 3.7 kg/m3 | mass density ([1]; 318.15 K, x2 = 0.7548): 1168 ± 3.5 kg/m3 | mass density ([1]; 318.15 K, x2 = 0.8764): 1077.5 ± 3.2 kg/m3 | mass density ([1]; 318.15 K, x2 = 0.9157): 1038.1 ± 3.1 kg/m3 | mass density ([1]; 323.15 K, x2 = 0): 1370.9 ± 4.1 kg/m3 | mass density ([1]; 323.15 K, x2 = 0.1268): 1353.2 ± 4.1 kg/m3 | mass density ([1]; 323.15 K, x2 = 0.2011): 1341 ± 4 kg/m3 | mass density ([1]; 323.15 K, x2 = 0.3028): 1321.8 ± 4 kg/m3 | mass density ([1]; 323.15 K, x2 = 0.3824): 1304.1 ± 3.9 kg/m3 | mass density ([1]; 323.15 K, x2 = 0.5078): 1269.9 ± 3.8 kg/m3 | mass density ([1]; 323.15 K, x2 = 0.6249): 1227.9 ± 3.7 kg/m3 | mass density ([1]; 323.15 K, x2 = 0.7548): 1163.3 ± 3.5 kg/m3 | mass density ([1]; 323.15 K, x2 = 0.8764): 1072.8 ± 3.2 kg/m3 | mass density ([1]; 323.15 K, x2 = 0.9157): 1033.3 ± 3.1 kg/m3 | mass density ([1]; 328.15 K, x2 = 0): 1366.6 ± 4.1 kg/m3 | mass density ([1]; 328.15 K, x2 = 0.1268): 1348.8 ± 4.1 kg/m3 | mass density ([1]; 328.15 K, x2 = 0.2011): 1336.6 ± 4 kg/m3 | mass density ([1]; 328.15 K, x2 = 0.3028): 1317.3 ± 4 kg/m3 | mass density ([1]; 328.15 K, x2 = 0.3824): 1299.7 ± 3.9 kg/m3 | mass density ([1]; 328.15 K, x2 = 0.5078): 1265.4 ± 3.8 kg/m3 | mass density ([1]; 328.15 K, x2 = 0.6249): 1223.3 ± 3.7 kg/m3 | mass density ([1]; 328.15 K, x2 = 0.7548): 1158.6 ± 3.5 kg/m3 | mass density ([1]; 328.15 K, x2 = 0.8764): 1068 ± 3.2 kg/m3 | mass density ([1]; 328.15 K, x2 = 0.9157): 1028.6 ± 3.1 kg/m3 | mass density ([1]; 333.15 K, x2 = 0): 1362.3 ± 4.1 kg/m3 | mass density ([1]; 333.15 K, x2 = 0.1268): 1344.5 ± 4.1 kg/m3 | mass density ([1]; 333.15 K, x2 = 0.2011): 1332.3 ± 4 kg/m3 | mass density ([1]; 333.15 K, x2 = 0.3028): 1312.9 ± 4 kg/m3 | mass density ([1]; 333.15 K, x2 = 0.3824): 1295.2 ± 3.9 kg/m3 | mass density ([1]; 333.15 K, x2 = 0.5078): 1260.8 ± 3.8 kg/m3 | mass density ([1]; 333.15 K, x2 = 0.6249): 1218.7 ± 3.7 kg/m3 | mass density ([1]; 333.15 K, x2 = 0.7548): 1153.9 ± 3.5 kg/m3 | mass density ([1]; 333.15 K, x2 = 0.8764): 1063.3 ± 3.2 kg/m3 | mass density ([1]; 333.15 K, x2 = 0.9157): 1023.8 ± 3.1 kg/m3 | excess molar enthalpy ([2]; 308.15 K, x2 = 0.1285): -0.413 ± 0.017 kJ/mol | excess molar enthalpy ([2]; 308.15 K, x2 = 0.2488): -0.699 ± 0.029 kJ/mol | excess molar enthalpy ([2]; 308.15 K, x2 = 0.2496): -0.702 ± 0.029 kJ/mol | excess molar enthalpy ([2]; 308.15 K, x2 = 0.2543): -0.701 ± 0.029 kJ/mol | excess molar enthalpy ([2]; 308.15 K, x2 = 0.3983): -0.972 ± 0.04 kJ/mol | excess molar enthalpy ([2]; 308.15 K, x2 = 0.5182): -1.14 ± 0.046 kJ/mol | excess molar enthalpy ([2]; 308.15 K, x2 = 0.5211): -1.14 ± 0.046 kJ/mol | excess molar enthalpy ([2]; 308.15 K, x2 = 0.6283): -1.19 ± 0.048 kJ/mol | excess molar enthalpy ([2]; 308.15 K, x2 = 0.7679): -1.06 ± 0.043 kJ/mol | excess molar enthalpy ([2]; 308.15 K, x2 = 0.889): -0.676 ± 0.028 kJ/mol | excess molar enthalpy ([2]; 313.15 K, x2 = 0.1226): -0.402 ± 0.016 kJ/mol | excess molar enthalpy ([2]; 313.15 K, x2 = 0.2487): -0.699 ± 0.029 kJ/mol | excess molar enthalpy ([2]; 313.15 K, x2 = 0.261): -0.73 ± 0.03 kJ/mol | excess molar enthalpy ([2]; 313.15 K, x2 = 0.3939): -0.969 ± 0.039 kJ/mol | excess molar enthalpy ([2]; 313.15 K, x2 = 0.5209): -1.14 ± 0.047 kJ/mol | excess molar enthalpy ([2]; 313.15 K, x2 = 0.5249): -1.15 ± 0.047 kJ/mol | excess molar enthalpy ([2]; 313.15 K, x2 = 0.625): -1.2 ± 0.049 kJ/mol | excess molar enthalpy ([2]; 313.15 K, x2 = 0.7717): -1.03 ± 0.042 kJ/mol | excess molar enthalpy ([2]; 313.15 K, x2 = 0.8796): -0.726 ± 0.03 kJ/mol | excess molar enthalpy ([2]; 323.15 K, x2 = 0.129): -0.425 ± 0.017 kJ/mol | excess molar enthalpy ([2]; 323.15 K, x2 = 0.2459): -0.706 ± 0.029 kJ/mol | excess molar enthalpy ([2]; 323.15 K, x2 = 0.2473): -0.708 ± 0.029 kJ/mol | excess molar enthalpy ([2]; 323.15 K, x2 = 0.3807): -0.96 ± 0.039 kJ/mol | excess molar enthalpy ([2]; 323.15 K, x2 = 0.5174): -1.16 ± 0.047 kJ/mol | excess molar enthalpy ([2]; 323.15 K, x2 = 0.5224): -1.17 ± 0.048 kJ/mol | excess molar enthalpy ([2]; 323.15 K, x2 = 0.6286): -1.22 ± 0.05 kJ/mol | excess molar enthalpy ([2]; 323.15 K, x2 = 0.7693): -1.09 ± 0.044 kJ/mol | excess molar enthalpy ([2]; 323.15 K, x2 = 0.8804): -0.735 ± 0.03 kJ/mol
